Results taken from article PMC8296573, “Synthesis and Biological Evaluation of Fingolimod Derivatives as Antibacterial Agents” (ACS Omega, 2021).
≈ marks a conversion by molar mass, not a printed value. Like-named read-outs stand apart in the source and are kept apart here.

Tests used:
S. aureus ATCC 25923 [1] = assay: Antibacterial activity, pre-exposure (planktonic cells and biofilm formation); type: cell-based, Staphylococcus aureus; settings: for MIC / inhibition at 5 µM / inhibition at 10 µM / inhibition at 15 µM / inhibition at 25 µM: Staphylococcus aureus, ATCC25923; for inhibition at 5 µM / inhibition at 10 µM / inhibition at 15 µM / inhibition at 25 µM / Average inhibition %, biofilms viability / Average inhibition %, planktonic cells viability: pre-exposure, ± SD
Method in brief: (§1)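 For planktonic resazurin, 20 μM final was used: 3–10 min at RT for S. aureus and A. baumannii, 20 min at 37 °C for P. aeruginosa. Cultures had been co-incubated with compound for 18 h at 37 °C, 220 rpm. Biofilms were then assessed by resazurin and crystal violet.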

S. aureus ATCC 25923 [2] = assay: Antibacterial activity, post-exposure on preformed 18-h-old biofilms; type: cell-based, Staphylococcus aureus; settings: ± SD; for inhibition at 25 µM / inhibition at 50 µM / inhibition at 100 µM / inhibition at 200 µM: Staphylococcus aureus; for inhibition at 25 µM: ATCC25923, 25 µM; for inhibition at 50 µM: ATCC25923, 50 µM; for inhibition at 100 µM: ATCC25923, 100 µM; for inhibition at 200 µM: ATCC25923, 200 µM
Method in brief: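 Compounds were applied to preformed 18-h biofilms after medium change and left 24 h. Read-outs: planktonic OD plus resazurin fluorescence (20 μM), biofilm metabolic activity by resazurin 30 min at 37 °C, then biomass by crystal violet absorbance at 595 nm after ethanol fixation.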

S. aureus ATCC 12598 = assay: Antibacterial activity, pre-exposure; type: cell-based, Staphylococcus aureus; settings: for Average inhibition %, biofilms viability / Average inhibition %, planktonic cells viability / inhibition at 5 µM / inhibition at 10 µM / inhibition at 15 µM / inhibition at 25 µM: S. aureus ATCC 12598, pre-exposure, ± SD; for inhibition at 5 µM / inhibition at 10 µM / inhibition at 15 µM / inhibition at 25 µM / MIC: Staphylococcus aureus, ATCC12598
Method in brief: as §1

A. baumannii NCTC 13423 = assay: Antibacterial activity, pre-exposure; type: cell-based, Acinetobacter baumannii; settings: for Average inhibition %, biofilms viability / Average inhibition %, planktonic cells viability / inhibition at 10 µM / inhibition at 15 µM / inhibition at 25 µM / inhibition at 50 µM: A. baumannii NCTC 13423, pre-exposure, ± SD; for inhibition at 10 µM / inhibition at 15 µM / inhibition at 25 µM / inhibition at 50 µM: Acinetobacter baumannii, NCTC13423
Method in brief: as §1

P. aeruginosa ATCC 9027 = assay: Antibacterial activity, pre-exposure; type: cell-based, Pseudomonas aeruginosa; settings: for Average inhibition %, biofilms viability / Average inhibition %, planktonic cells viability / inhibition at 50 µM / inhibition at 100 µM / inhibition at 150 µM / inhibition at 200 µM: P. aeruginosa ATCC 9027, pre-exposure, ± SD; for inhibition at 50 µM / inhibition at 100 µM / inhibition at 150 µM / inhibition at 200 µM: Pseudomonas aeruginosa, ATCC9027
Method in brief: as §1

[3] = 5 µM, read-out: Average inhibition %, biofilms biomass
[4] = 5 µM, read-out: Average inhibition %, planktonic cells turbidity
[5] = 10 µM, read-out: Average inhibition %, biofilms biomass
[6] = 10 µM, read-out: Average inhibition %, planktonic cells turbidity
[7] = 15 µM, read-out: Average inhibition %, biofilms biomass
[8] = 15 µM, read-out: Average inhibition %, planktonic cells turbidity
[9] = 25 µM, read-out: Average inhibition %, biofilms biomass
[10] = 25 µM, read-out: Average inhibition %, planktonic cells turbidity
[11] = read-out: Average inhibition %, biofilms biomass
[12] = read-out: Average inhibition %, planktonic cells turbidity
[13] = 50 µM, read-out: Average inhibition %, biofilms biomass
[14] = 50 µM, read-out: Average inhibition %, planktonic cells turbidity

Compound `CCCCCCCCc1ccc2cc(CC(N)(CO)CO)ccc2c1` [Compound 79, 2-Amino-2-[(6-octylnaphthalen-2-yl)methyl]propane-1,3-diol] has an MIC (S. aureus ATCC 25923 [1]; lowest concentration with no visible growth (>90% inhibition of turbidity and viability of planktonic cells), 18 h, read-out: MIC S. aureus ATCC 25923) of 10 µM (≈ 3.44 µg/mL), an inhibition at 5 µM (S. aureus ATCC 25923 [1]; [3]) of 37.5 ± 32.5% and an inhibition at 5 µM (S. aureus ATCC 25923 [1]; [4]) of 15.2 ± 17.2%. It also gave an inhibition at 10 µM (S. aureus ATCC 25923 [1]; [5]) of 91.3 ± 5.8%, an inhibition at 10 µM (S. aureus ATCC 25923 [1]; [6]) of 98.7 ± 0.9% and an inhibition at 15 µM (S. aureus ATCC 25923 [1]; [7]) of 92.1 ± 4.9%. The inhibition at 15 µM (S. aureus ATCC 25923 [1]; [8]) was 98.7 ± 1%, the inhibition at 25 µM (S. aureus ATCC 25923 [1]; [9]) was 92.5 ± 4.2% and the inhibition at 25 µM (S. aureus ATCC 25923 [1]; [10]) was 98.5 ± 1%. For the same compound, the MIC (S. aureus ATCC 25923 [1]; read-out: MIC (S. aureus)) was 10 µM (≈ 3.44 µg/mL), the “Average inhibition %, biofilms viability” value (S. aureus ATCC 25923 [1]; 5 µM) was 28 ± 2.7% and the “Average inhibition %, planktonic cells viability” value (S. aureus ATCC 25923 [1]; 5 µM) was 26.3 ± 24.3%. The “Average inhibition %, biofilms viability” value (S. aureus ATCC 25923 [1]; 10 µM) was 98.1 ± 0.5%, the “Average inhibition %, planktonic cells viability” value (S. aureus ATCC 25923 [1]; 10 µM) was 99.8 ± 0% and the “Average inhibition %, biofilms viability” value (S. aureus ATCC 25923 [1]; 15 µM) was 99.3 ± 0.2%. The “Average inhibition %, planktonic cells viability” value (S. aureus ATCC 25923 [1]; 15 µM) was 99.8 ± 0.1%, the “Average inhibition %, biofilms viability” value (S. aureus ATCC 25923 [1]; 25 µM) was 99.2 ± 0.3% and the “Average inhibition %, planktonic cells viability” value (S. aureus ATCC 25923 [1]; 25 µM) was 99.9 ± 0.2%. The “Average inhibition %, biofilms viability” value (S. aureus ATCC 25923 [2]; 25 µM) was 15.4 ± 3.3%, the “Average inhibition %, planktonic cells viability” value (S. aureus ATCC 25923 [2]; 25 µM) was 0.3 ± 0.6% and the “Average inhibition %, biofilms viability” value (S. aureus ATCC 25923 [2]; 50 µM) was 23.3 ± 4.3%. For the same compound, the “Average inhibition %, planktonic cells viability” value (S. aureus ATCC 25923 [2]; 50 µM) was 0 ± 0%, the “Average inhibition %, biofilms viability” value (S. aureus ATCC 25923 [2]; 100 µM) was 28.7 ± 6.3% and the “Average inhibition %, planktonic cells viability” value (S. aureus ATCC 25923 [2]; 100 µM) was 23.6 ± 15.5%. The “Average inhibition %, biofilms viability” value (S. aureus ATCC 25923 [2]; 200 µM) was 28.8 ± 6.5%, the “Average inhibition %, planktonic cells viability” value (S. aureus ATCC 25923 [2]; 200 µM) was 57 ± 23.8% and the inhibition at 25 µM (S. aureus ATCC 25923 [2]; [11]) was 21.5 ± 4.7%. For the same compound, the inhibition at 25 µM (S. aureus ATCC 25923 [2]; [12]) was 16.1 ± 25.9%, the inhibition at 50 µM (S. aureus ATCC 25923 [2]; [11]) was 29.7 ± 10.3% and the inhibition at 50 µM (S. aureus ATCC 25923 [2]; [12]) was 12.4 ± 8.3%. The inhibition at 100 µM (S. aureus ATCC 25923 [2]; [11]) was 36.6 ± 6.4%, the inhibition at 100 µM (S. aureus ATCC 25923 [2]; [12]) was 25.7 ± 16.3% and the inhibition at 200 µM (S. aureus ATCC 25923 [2]; [11]) was 43.1 ± 20.9%. For the same compound, the inhibition at 200 µM (S. aureus ATCC 25923 [2]; [12]) was 31.5 ± 11.1%, the “Average inhibition %, biofilms viability” value (S. aureus ATCC 12598; 5 µM) was 65.9 ± 50.1% and the “Average inhibition %, planktonic cells viability” value (S. aureus ATCC 12598; 5 µM) was 69.3 ± 47.1%. The “Average inhibition %, biofilms viability” value (S. aureus ATCC 12598; 10 µM) was 99.6 ± 0.1%, the “Average inhibition %, planktonic cells viability” value (S. aureus ATCC 12598; 10 µM) was 99.8 ± 0.1% and the “Average inhibition %, biofilms viability” value (S. aureus ATCC 12598; 15 µM) was 99.5 ± 0%. The “Average inhibition %, planktonic cells viability” value (S. aureus ATCC 12598; 15 µM) was 99.6 ± 0.1%, the “Average inhibition %, biofilms viability” value (S. aureus ATCC 12598; 25 µM) was 99.5 ± 0.1% and the “Average inhibition %, planktonic cells viability” value (S. aureus ATCC 12598; 25 µM) was 99.6 ± 0.1%. For the same compound, the inhibition at 5 µM (S. aureus ATCC 12598; [3]) was 63.5 ± 41.5%, the inhibition at 5 µM (S. aureus ATCC 12598; [4]) was 82.3 ± 26.8% and the inhibition at 10 µM (S. aureus ATCC 12598; [5]) was 94.7 ± 0.2%. It also gave an inhibition at 10 µM (S. aureus ATCC 12598; [6]) of 99.6%, an inhibition at 15 µM (S. aureus ATCC 12598; [7]) of 94.6 ± 0.6% and an inhibition at 15 µM (S. aureus ATCC 12598; [8]) of 99.4 ± 0.1%. The inhibition at 25 µM (S. aureus ATCC 12598; [9]) was 95 ± 1%, the inhibition at 25 µM (S. aureus ATCC 12598; [10]) was 99.2 ± 0.3% and the MIC (S. aureus ATCC 12598; S. aureus ATCC 12598 and P2, read-out: MIC against the clinical strains of S. aureus) was 5 to 10 µM (≈ 1.72 to 3.44 µg/mL). The MIC (S. aureus ATCC 12598; pre-exposure, 18 h, read-out: MIC S. aureus ATCC 12598) was 5 to 10 µM (≈ 1.72 to 3.44 µg/mL), the “Average inhibition %, biofilms viability” value (A. baumannii NCTC 13423; 10 µM) was 0.3 ± 0.6% and the “Average inhibition %, planktonic cells viability” value (A. baumannii NCTC 13423; 10 µM) was 4.7 ± 4.7%. The “Average inhibition %, biofilms viability” value (A. baumannii NCTC 13423; 15 µM) was 0.7 ± 0.6%, the “Average inhibition %, planktonic cells viability” value (A. baumannii NCTC 13423; 15 µM) was 4.2 ± 4.8% and the “Average inhibition %, biofilms viability” value (A. baumannii NCTC 13423; 25 µM) was 1.2 ± 1.5%. The “Average inhibition %, planktonic cells viability” value (A. baumannii NCTC 13423; 25 µM) was 0 ± 0%, the “Average inhibition %, biofilms viability” value (A. baumannii NCTC 13423; 50 µM) was 6.5 ± 6.4% and the “Average inhibition %, planktonic cells viability” value (A. baumannii NCTC 13423; 50 µM) was 0 ± 0%. The inhibition at 10 µM (A. baumannii NCTC 13423; [5]) was 1.7 ± 3%, the inhibition at 10 µM (A. baumannii NCTC 13423; [6]) was 0% and the inhibition at 15 µM (A. baumannii NCTC 13423; [7]) was 3.3 ± 5.7%. It also gave an inhibition at 15 µM (A. baumannii NCTC 13423; [8]) of 0%, an inhibition at 25 µM (A. baumannii NCTC 13423; [9]) of 0.2 ± 0.4% and an inhibition at 25 µM (A. baumannii NCTC 13423; [10]) of 0%. For the same compound, the inhibition at 50 µM (A. baumannii NCTC 13423; [13]) was 3.3 ± 5.1%, the inhibition at 50 µM (A. baumannii NCTC 13423; [14]) was 0.3 ± 0.6% and the “MIC A. baumannii NCTC 13423” value (A. baumannii NCTC 13423; pre-exposure, Inactive = no activity up to 50 μM, > = some inhibition but no MIC reached) was “Inactive”. For the same compound, the “Average inhibition %, biofilms viability” value (P. aeruginosa ATCC 9027; 50 µM) was 0 ± 0%, the “Average inhibition %, planktonic cells viability” value (P. aeruginosa ATCC 9027; 50 µM) was 3.9 ± 3.6% and the “Average inhibition %, biofilms viability” value (P. aeruginosa ATCC 9027; 100 µM) was 0 ± 0%. For the same compound, the “Average inhibition %, planktonic cells viability” value (P. aeruginosa ATCC 9027; 100 µM) was 1.9 ± 2.3%, the “Average inhibition %, biofilms viability” value (P. aeruginosa ATCC 9027; 150 µM) was 0.5 ± 0.9% and the “Average inhibition %, planktonic cells viability” value (P. aeruginosa ATCC 9027; 150 µM) was 4.2 ± 7.4%. For the same compound, the “Average inhibition %, biofilms viability” value (P. aeruginosa ATCC 9027; 200 µM) was 2.1 ± 3.6%, the “Average inhibition %, planktonic cells viability” value (P. aeruginosa ATCC 9027; 200 µM) was 7.6 ± 13.1% and the inhibition at 50 µM (P. aeruginosa ATCC 9027; [13]) was 1.2 ± 1.5%. For the same compound, the inhibition at 50 µM (P. aeruginosa ATCC 9027; [14]) was 23.6 ± 9%, the inhibition at 100 µM (P. aeruginosa ATCC 9027; 100 µM, read-out: Average inhibition %, biofilms biomass) was 3.6 ± 4.7% and the inhibition at 100 µM (P. aeruginosa ATCC 9027; 100 µM, read-out: Average inhibition %, planktonic cells turbidity) was 23 ± 3.8%. The inhibition at 150 µM (P. aeruginosa ATCC 9027; 150 µM, read-out: Average inhibition %, biofilms biomass) was 6.1 ± 5.3%, the inhibition at 150 µM (P. aeruginosa ATCC 9027; 150 µM, read-out: Average inhibition %, planktonic cells turbidity) was 28 ± 2.4% and the inhibition at 200 µM (P. aeruginosa ATCC 9027; 200 µM, read-out: Average inhibition %, biofilms biomass) was 0%. For the same compound, the inhibition at 200 µM (P. aeruginosa ATCC 9027; 200 µM, read-out: Average inhibition %, planktonic cells turbidity) was 25 ± 2.8% and the “MIC P. aeruginosa ATCC 9027” value (P. aeruginosa ATCC 9027; pre-exposure, Inactive = no activity up to 200 μM, > = some inhibition but no MIC reached) was “Inactive”.
